What all share (test): MIC, suppression of radial hyphal growth on malt extract nutrient agar
What all share (type): cell-based

Assay [1] concerns Aspergillus niger. The conditions noted are these: Example 3 synergism test, 26° C., read-out: MIC (ppm) Aspergillus niger. The protocol:
(§1) Pieces of mycelium were punched out of a colony of the appropriate mold and incubated at 26° C. on a nutrient agar containing malt extract. Here, hyphal growth with and without active ingredient was compared.
(§2) The synergism was determined according to the method described by Kull et al. (F. C. Kull, P. C. Eismann, H. D. Sylvestrowicz, R. L. Mayer, Applied Microbiology 1961, 9, 538-541). The following relationships apply:
(§3) [formula] • SI=1 means additivity • SI>1 means antagonism • SI<1 means synergism • Qa=concentration of substance A which is the MIC • Qb=concentration of substance B which is the MIC • QA=concentration of substance A in the concentration of A/B at which microbial growth is suppressed • Qb=concentration of substance B in the concentration of A/B at which microbial growth is suppressed 3.1 Combinations of AZO and IPBC Against the Molds Aspergillus niger and Aspergillus versicolor

Assay [2] concerns Aspergillus versicolor. The conditions noted are these: Example 3 synergism test, 26° C., read-out: MIC (ppm) Aspergillus versicolor. The procedure:
as §1, §2, §3

The subject of assay [3] is Cladosporium cladosporioides. The conditions noted are these: Example 3 synergism test, 26° C., read-out: MIC against Cladosporium cladosporioides (ppm). The procedure: (§4) For this purpose, pieces of mycelium were punched out of a colony of the appropriate mold and incubated at 26° C. on a nutrient agar containing malt extract. Here, hyphal growth with and without active ingredient was compared.
as §1, §2, §3

Assay [4] concerns Stachybotrys chartarum. The conditions noted are these: Example 3 synergism test, 26° C., read-out: MIC against Stachybotrys chartarum (ppm). The protocol:
as §4, §1, §2, §3

Assay [5] relates to Trichoderma virens. The conditions noted are these: Example 3 synergism test, 26° C., read-out: MIC against Trichoderma virens (ppm). The protocol: as §4, §1, §2, §3

Usually MIC stands for the least concentration at which growth counts as inhibited.

`CO/C=C(/C(=O)OC)c1ccccc1Oc1cc(Oc2ccccc2C#N)ncn1` [AZO, methyl (E)-2-{2-[6-(2-cyanophenoxy)pyrimidin-4-yloxy]phenyl}-3-methoxyacrylate]: the MIC in assay [1] came to 5000 µg/mL; in assay [2], 100 µg/mL; in assay [3], 5 µg/mL; in assay [4], 100 µg/mL; in assay [5] it was 1000 µg/mL.

The record behind these values is patent publication US20240306640A1, “BIOCIDAL MIXTURES” (LANXESS Deutschland GmbH, priority 2021, published 2024).
